Test results reported in paper PMC10142505, “Synthesis, Evaluation of Enzyme Inhibition and Redox Properties of Potential Dual COX-2 and 5-LOX Inhibitors” (Pharmaceuticals, 2023).
Marks after values point to notes of the source that are not given here.

System: human serum pool
Test: Redox activity (oxy score from TOS, PAB, TAS, SHG) in vitro in human serum pool
Conditions: 37 °C, median (interquartile range); for Oxy score (OS), 2 h incubation, TBH added / Oxy score (OS), 24 h incubation, TBH added: with TBH added; for Oxy score (OS), 2 h incubation / Oxy score (OS), 24 h incubation: without TBH; for Oxy score (OS), 2 h incubation: average of five concentrations
Experimental: The remains of the serum samples were taken from healthy subjects after biochemical analysis; these subjects participated in regular medical examinations at the Military Medical Academy in Belgrade and consented to the formation of a serum pool. Neither the patients’ data nor their identities were used. Serum pool samples were prepared and aliquoted (450 µL portions) according to the routine procedure for in-house controle samples and preserved at the -80 °C until analysis. Five serial dilutions of the tested compounds (concentrations: 1000 µM, 500 µM, 250 µM, 125 µM and 62.5 µM) were added alone (50 µL) or in combination (25 µL) with oxidant TBH (25 µM) into 450 µL of serum. The compounds were dissolved in dimethyl sulfoxide (DMSO) for stock solution (1000 µM), while a PBS buffer (phosphate buffered saline) pH = 7.4 was used for serial dilutions (500 µM, 250 µM, 125 µM and 62.5 µM). Deionized water was used as a blank. DMSO and buffer pH = 7.4 were used as a control, while trolox solution (2 mmol/L) was used as a standard. All samples were incubated in duplicate for 2 h and 24 h at 37 °C.
Oxidative stress parameters (total antioxidative status (TAS), total oxidative status (TOS), total concentration of sulfhydryl group (SHG) and prooxidative–antioxidative balance (PAB)) were determined in order to calculate prooxidative score, antioxidative score and oxy score (OS). These parameters were determined in serum.
Total antioxidative status (TAS) was measured using Erel’s method, which was further optimized by Kotur-Stevuljevic et al. in 2015 [34]. ABTS (2,2-azino-bis(3-ethyl-benzthiazoline-6-sulfonic acid) is oxidized to a green-colored ABTS^+ cation by hydrogen peroxide in the acetate buffer (pH = 3.6). This stable cation is chromogen, and the presence of antioxidants in the samples causes its discoloration proportional to their concentrations. The absorbance was measured using a SPECTROstar Nano Microplate Reader (BMG Labtech, Ortenberg, Germany). The reaction was calibrated with Trolox and the TAS values are expressed as mmol trolox equivalent/L.
Total oxidative status (TOS) was measured using Erel’s method. Here, a ferrous ion-o-dianisidine complex is oxidized to ferric ion by the oxidants present in the sample. The ferric ion forms a colored complex with xylenol orange in an acidic environment and in the presence of glycerol. The intensity of the color of the formed complex is proportional to the total contents of oxidants in the sample. The absorbance was measured at 560 nm using a SPECTROstar Nano Microplate Reader (BMG Labtech, Ortenberg, Germany). The reaction was calibrated with hydrogen peroxide and the TOS values are expressed as µmol H2O2 equivalent/L.
Prooxidant–antioxidant balance (PAB) was measured according to procedures in the literature. Here, hydrogen peroxide is determined in the presence of antioxidants in the sample. Both of them (hydrogen peroxide and antioxidants (including uric acid)) react with chromogen TMB (3,3′,5,5′-tetramethylbenzidine) simultaneously. The hydrogen peroxide and chromogen reaction is enzymatically catalyzed with peroxidase, while the antioxidants–chromogen reaction is non-enzymatic. The intense blue color, produced as a result of the reaction between hydrogen peroxide and TMB, is decolorized by the reaction of the antioxidant with the TMB. The resulting color (result of two competitive reactions) is proportional to the ratio of antioxidants to prooxidants. The absorbance was measured at 450 nm. Different ratios of hydrogen peroxide and uric acid solutions were used to make a standard curve. The PAB results are expressed in hydrogen peroxide concentrations.
Total Sulfydryl Groups Content (SHG) was measured using a modified version of Ellman’s method. This method is based on the reaction between DTNB ([…]) and aliphatic thiol compounds in an alkaline environment (pH = 9.0). […]

CCOc1ccccc1NC(=O)N(C)C [Compound 8, 3-(2-ethoxy-phenyl)-1,1-dimethyl-urea]
Oxy score (OS), 2 h incubation, TBH added: 8.43 (5.76–13.81) | Oxy score (OS), 2 h incubation: 0.03 (−0.96–1.46) | Oxy score (OS), 24 h incubation, TBH added: −0.55 (−0.67–1.48) ^## | Oxy score (OS), 24 h incubation: −0.52 (−1.24–3.03)

COc1ccc2cc(C(C)N(O)C(C)=O)ccc2c1 (centres unmarked) [Compound 12, N-hydroxy-N-[1-(6-methoxy-naphthalen-2-yl)-ethyl]-acetamide]
Oxy score (OS), 2 h incubation, TBH added: 4.79 (4.25–5.43) | Oxy score (OS), 2 h incubation: 0.24 (−0.06–0.58) | Oxy score (OS), 24 h incubation, TBH added: 3.97 (3.44–6.33) | Oxy score (OS), 24 h incubation: 2.49 (2.03–2.66) **

C#CCNC(=O)c1cc(C(C)(C)C)c(O)c(C(C)(C)C)c1 [Compound 7, 3,5-di-tert-butyl-4-hydroxy-N-prop-2-ynyl-benzamide]
Oxy score (OS), 2 h incubation, TBH added: 6.62 (6.42–6.98) | Oxy score (OS), 2 h incubation: 3.12 (2.21–3.47) | Oxy score (OS), 24 h incubation, TBH added: 10.54 (4.45–27.42) | Oxy score (OS), 24 h incubation: 2.55 (2.18–2.92)

CC(NC(=O)NO)c1ccc(-c2ccccc2)c(F)c1 (centres unmarked) [Compound 2]
Oxy score (OS), 2 h incubation, TBH added: 5.20 (3.70–5.42) | Oxy score (OS), 2 h incubation: 3.28 (−0.68–16.66) | Oxy score (OS), 24 h incubation, TBH added: 6.79 (4.37–7.90) | Oxy score (OS), 24 h incubation: 0.33 (−0.07–0.85)

CCOc1ccccc1NC(=O)Nc1ccc([N+](=O)[O-])cc1 [Compound 10, 1-(2-ethoxy-phenyl)-3-(4-nitro-phenyl)-urea]
Oxy score (OS), 2 h incubation, TBH added: 6.34 (5.07–22.02) | Oxy score (OS), 24 h incubation, TBH added: 0.97 (−0.04–4.08) | Oxy score (OS), 24 h incubation: −0.97 (−1.53–3.85)

COC(=O)C(Cc1c[nH]cn1)NC(=O)c1cc(C(C)(C)C)c(O)c(C(C)(C)C)c1 (centres unmarked) [Compound 4, 2-(3,5-di-tert-butyl-4-hydroxy-benzoylamino)-3-(1H-imidazol-4-yl)-propionic acid methyl ester]
Oxy score (OS), 2 h incubation, TBH added: 3.68 (3.36–8.40) | Oxy score (OS), 2 h incubation: 0.24 (−0.24–0.89) | Oxy score (OS), 24 h incubation, TBH added: 7.86 (7.20–10.68) | Oxy score (OS), 24 h incubation: 3.00 (1.99–3.93) **

COC(=O)CNC(=O)c1cc(C(C)(C)C)c(O)c(C(C)(C)C)c1 [Compound 5, (3,5-di-tert-butyl-4-hydroxy-benzoylamino)-acetic acid methyl ester]
Oxy score (OS), 2 h incubation, TBH added: 2.83 (2.55–3.39) | Oxy score (OS), 2 h incubation: 0.29 (−0.30–1.23) | Oxy score (OS), 24 h incubation, TBH added: 5.64 (5.07–6.47) | Oxy score (OS), 24 h incubation: 2.14 (1.37–2.62) **

C=CCNC(=O)c1cc(C(C)(C)C)c(O)c(C(C)(C)C)c1 [Compound 6, N-allyl-3,5-di-tert-butyl-4-hydroxy-benzamide]
Oxy score (OS), 2 h incubation, TBH added: 3.77 (3.37–4.20) | Oxy score (OS), 2 h incubation: 0.52 (0.08–1.52) | Oxy score (OS), 24 h incubation, TBH added: 6.07 (4.34–7.02) | Oxy score (OS), 24 h incubation: 3.09 (2.50–3.67)

CC(C)(C)c1cc(C=C2SC(=S)N(N)C2=O)cc(C(C)(C)C)c1O [Compound 13, 3-amino-5-(3,5-di-tert-butyl-4-hydroxy-benzylidene)-2-thioxo-thiazolidin-4-one]
Oxy score (OS), 2 h incubation, TBH added: 5.89 (5.63–6.14) | Oxy score (OS), 2 h incubation: 0.75 (0.56–0.94) | Oxy score (OS), 24 h incubation: 0.64 (0.19–1.01)

O=C(NO)NCc1ccccc1Nc1c(Cl)cccc1Cl [Compound 3, N’-hydroxy-N-[(2-(2,6-dichloroanilino)phenyl)methyl]urea]
Oxy score (OS), 2 h incubation, TBH added: 5.81 (4.64–7.25) | Oxy score (OS), 2 h incubation: 1.58 (−0.38–3.45) | Oxy score (OS), 24 h incubation, TBH added: 1.93 (0.65–5.02) ^# | Oxy score (OS), 24 h incubation: 1.31 (−0.31–1.75)

CN(C)C(=O)Nc1ccccc1C(=O)O [Compound 9, 2-(3,3-dimethyl-ureido)-benzoic acid]
Oxy score (OS), 2 h incubation, TBH added: 5.97 (4.06–8.25) | Oxy score (OS), 2 h incubation: 0.09 (−0.79–1.80) | Oxy score (OS), 24 h incubation, TBH added: −0.19 (−0.68–1.56) | Oxy score (OS), 24 h incubation: −0.18 (−1.55–2.91)

CC(=O)N(O)C(C)c1ccc(CC(C)C)cc1 (centres unmarked) [Compound 11]
Oxy score (OS), 2 h incubation, TBH added: 5.15 (4.76–6.74) | Oxy score (OS), 2 h incubation: −0.22 (−0.65–0.82) | Oxy score (OS), 24 h incubation, TBH added: 3.18 (2.92–3.60) ^## | Oxy score (OS), 24 h incubation: 1.83 (1.49–2.18) *

COc1ccc2c(c1)c(CNC(=O)NO)c(C)n2C(=O)c1ccc(Cl)cc1 [Compound 1, N’-hydroxy-N-[(1-(4-chlorobenzoyl)-5-methoxy-2-methyl-3-indolyl)methyl]urea]
Oxy score (OS), 2 h incubation, TBH added: 6.44 (5.51–7.02) | Oxy score (OS), 2 h incubation: −0.43 (−1.27–3.13) | Oxy score (OS), 24 h incubation, TBH added: 5.46 (4.96–6.20) | Oxy score (OS), 24 h incubation: 0.71 (0.51–0.80)
